Test results: ChEMBL document CHEMBL4145566, “Isoindolinones, Phthalides, and a Naphthoquinone from the Fruiting Body of Daldinia concentrica” (J Nat Prod, 2018)

Test system: HUVEC
Assay: Antiangiogenic activity in HUVEC assessed as inhibition of cell proliferation after 18 hrs by WST-8 reagent based assay
Assay type: functional
Conditions: Homo sapiens

| SMILES | IC50 [µM] |
| --- | --- |
| C=C1[C@@H](C)[C@H]2[C@H](Cc3ccccc3)NC(=O)[C@]23OC(=O)/C=C/[C@@H](O)CCC[C@@H](C)C/C=C/[C@H]3[C@@H]1O | 0.2 |
| COc1cccc2c1C(=O)C(=O)C=C2c1ccc(O)c2c(OC)cccc12 | 7.5 |
